14 molecules from PubChem BioAssay (NCI) can be followed below.

Among the test systems are EKVX NSCLC; MDA-MB-231 breast; OVCAR-8 ovarian; MDA-N; LOX IMVI melanoma; HT29 colon; A498 renal; UACC-62 melanoma; K-562 leukemia.
What all share (experiment): DTP human tumour cell line panel, 48 h

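Each compound was tested at five concentrations against cells in 96-well plates for 48 hours. GI50 = concentration required for 50% inhibition of growth. TGI is the concentration that stops growth completely.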

Consider `CCSc1n/c(=C\c2ccco2)c2nnnn12`, for which the TGI in the test on EKVX NSCLC, in the test on MDA-MB-231 breast, in the test with OVCAR-8 ovarian, in the test on MDA-N, in the test on LOX IMVI melanoma and in the test with HT29 colon was more than 100 µM in each case. The TGI with A498 renal and in the test with UACC-62 melanoma was more than 100 µM in each case.

In the case of `COc1ccc(C2CC(c3cccc(Nc4ccncc4)c3)=NN2c2cc(Cl)cc(Cl)c2)cc1` (stereo not drawn), the GI50 is 1.89 µM in the test with EKVX NSCLC; 2.41 µM in the test on K-562 leukemia; 1.62 µM in the test on LOX IMVI melanoma; 2.26 µM in the test with HT29 colon; 3.06 µM in the test on A498 renal; 1.9 µM in the test with UACC-62 melanoma. Also, the TGI came out at 4.68 µM in the test on EKVX NSCLC; 5.57 µM in the test with K-562 leukemia; 2.97 µM in the test on LOX IMVI melanoma; 5.46 µM in the test on HT29 colon; 18 µM in the test on A498 renal; 3.94 µM in the test with UACC-62 melanoma.

Take `Cc1nc2ccccc2c(=O)n1NC(=O)c1ccc(CS)cc1`: the TGI with EKVX NSCLC is 66.2 µM; in the test with MDA-MB-231 breast, 84.6 µM; with K-562 leukemia, 68.1 µM; in the test with OVCAR-8 ovarian, more than 100 µM; in the test on LOX IMVI melanoma it was 0.401 µM; with HT29 colon, more than 100 µM. The same molecule returned a TGI with A498 renal of 40.8 µM.

With `CCCCCN=Cc1c(O)c(O)c(C(C)C)c2cc(C)c(-c3c(C)cc4c(C(C)C)c(O)c(O)c(C=NCCCCC)c4c3O)c(O)c12`, the TGI is more than 100 µM in the test with EKVX NSCLC; 65.1 µM in the test with MDA-MB-231 breast; 70 µM in the test on K-562 leukemia; more than 100 µM with OVCAR-8 ovarian; 16.7 µM with LOX IMVI melanoma; more than 100 µM with HT29 colon. Moreover, the total growth inhibition concentration (TGI) in the test on A498 renal is more than 100 µM; in the test with UACC-62 melanoma it was 33 µM.

Take `CC1CC(N)=Nc2ccccc2N1` (stereo not drawn): the TGI with EKVX NSCLC, in the test with MDA-MB-231 breast, in the test on K-562 leukemia, with OVCAR-8 ovarian, with MDA-N and with LOX IMVI melanoma was more than 100 µM each time. For the same molecule, the TGI with HT29 colon and in the test on UACC-62 melanoma was more than 100 µM throughout.

Consider `COc1ccc(N=C2SC(=N/N=c3\sc4ccccc4n3C)SC2=Nc2ccc(OC)cc2)cc1`, for which the TGI in the test with EKVX NSCLC is more than 100 µM; with MDA-MB-231 breast it was 66 µM; in the test with K-562 leukemia, more than 100 µM; with OVCAR-8 ovarian, more than 100 µM; with MDA-N it was more than 100 µM; with HT29 colon, more than 100 µM. Moreover, in the test on UACC-62 melanoma, the concentration for total growth inhibition (TGI) is more than 100 µM.

On to `Cc1nc(N)sc1-c1ccnc(Nc2ccc(N3CCOCC3)cc2)n1`, for which the GI50 with EKVX NSCLC is 4.02 µM; with MDA-MB-231 breast it was 3.1 µM; in the test with K-562 leukemia, 1.6 µM; with OVCAR-8 ovarian, 2.78 µM; in the test on LOX IMVI melanoma, 0.907 µM; with HT29 colon, 2.11 µM. In the test on A498 renal, the GI50 was 0.731 µM. Also, the TGI with EKVX NSCLC, with MDA-MB-231 breast, in the test on K-562 leukemia, in the test with OVCAR-8 ovarian, with LOX IMVI melanoma and with HT29 colon was more than 100 µM each time. The TGI in the test on A498 renal was determined as 2.07 µM.

Consider `Cc1ccc(/C=N/n2c(=O)[nH]c3ccccc3c2=O)cc1`, for which the TGI in the test on EKVX NSCLC, in the test with MDA-MB-231 breast, in the test with K-562 leukemia, in the test with MDA-N, in the test on LOX IMVI melanoma and in the test with HT29 colon was more than 100 µM in each case. Further, the TGI in the test with A498 renal and in the test with UACC-62 melanoma was more than 100 µM each time.

In the case of `S=C(NCc1ccccc1)c1nc[nH]c1C(=S)NCc1ccccc1`, the total growth inhibition concentration (TGI) amounted to 17 µM in the test with EKVX NSCLC; 22.3 µM with MDA-MB-231 breast; 29.7 µM in the test on K-562 leukemia; 18.8 µM with OVCAR-8 ovarian; 23 µM with MDA-N; 17.1 µM with LOX IMVI melanoma. The TGI worked out at 22.7 µM in the test with HT29 colon and 13.4 µM in the test with UACC-62 melanoma.

With `CN(c1ccc(Cl)cc1)S(=O)(=O)c1cccc([N+](=O)[O-])c1`, the TGI with EKVX NSCLC, with MDA-MB-231 breast, in the test on K-562 leukemia, in the test with OVCAR-8 ovarian, in the test on MDA-N and with LOX IMVI melanoma was more than 100 µM each time. Besides, the TGI with HT29 colon and with UACC-62 melanoma was more than 100 µM throughout.

Consider `NC(=O)C(N)Cc1ccc(O)cn1` (stereo not drawn), for which the TGI in the test on EKVX NSCLC, in the test on MDA-MB-231 breast, in the test on K-562 leukemia, in the test on OVCAR-8 ovarian, in the test on MDA-N and in the test on LOX IMVI melanoma was more than 100 µM each time. Further, the TGI with HT29 colon and in the test on A498 renal was more than 100 µM each time.

Turning to `CN(c1ccc(Cl)cc1)S(=O)(=O)c1ccc([N+](=O)[O-])cc1`, the TGI in the test on EKVX NSCLC, with MDA-MB-231 breast, in the test on K-562 leukemia, in the test on OVCAR-8 ovarian, with MDA-N and in the test with LOX IMVI melanoma was more than 100 µM each time. Also, the TGI in the test with HT29 colon and with UACC-62 melanoma was more than 100 µM in each case.

For `Cc1ccc2c(n1)C(=O)c1[nH]c3ccccc3c1C2=O`, the GI50 with EKVX NSCLC is 1.22 µM; with MDA-MB-231 breast, 1.85 µM; with K-562 leukemia, 3.14 µM; in the test on OVCAR-8 ovarian, 2.61 µM; in the test with LOX IMVI melanoma, 1.01 µM; in the test with HT29 colon, 3.05 µM. The GI50 with A498 renal is 1.38 µM; with UACC-62 melanoma it was 0.557 µM. For the same molecule, the TGI is 4.17 µM in the test on EKVX NSCLC; 73.6 µM with MDA-MB-231 breast; more than 100 µM with K-562 leukemia; more than 100 µM in the test on OVCAR-8 ovarian; 24.8 µM in the test with LOX IMVI melanoma; more than 100 µM in the test with HT29 colon. For the same molecule, the TGI came to 2.76 µM with A498 renal and 1.88 µM with UACC-62 melanoma.

In the case of `COc1ccc(/C=C(/C(=O)c2ccc(Cl)cc2)N2C=CC=CC2=C(C#N)C#N)cc1OC`, the TGI with EKVX NSCLC came out at 10.6 µM; in the test with MDA-MB-231 breast, 21.6 µM; in the test with OVCAR-8 ovarian it was 16.1 µM; in the test with MDA-N it was 20.1 µM; with LOX IMVI melanoma, 8.3 µM; in the test on HT29 colon it was 13.1 µM. In addition, the TGI with A498 renal is 30.5 µM; in the test on UACC-62 melanoma it was 28.2 µM.
